Data set [1] can be described thus: Temperature dependence of T1 of hyperpolarized [^15N2]urea in D2O. Format: physicochemical. The arrangement: T1 Average ± SD: unit not given here. As to the method: The experiment shown in FIG. 9B clarified the importance of maximizing the T1 of [^15N2]urea for optimal storage of the polarization, in order to expand the time scale in which the hyperpolarized signal from a single dose can be observed in vivo. As for storage there are no limitation to physiological temperatures, the effect of temperature on the T1 of [^15N2]urea was measured. Given the impressive signal afforded by the dDNP process and its long lifetime, it was possible to measure the T1 of the ^15N sites of urea for a range of temperatures with a single sample that was slowly heated or cooled while the temperature was continuously monitored with an NMR compatible temperature probe (FIG. 10A, top). In order to determine the temperature dependent T1, the decay data were retrospectively binned to consecutive 10° C. segments (FIG. 10A, alternating shading indicates different 10° C. segments) and the T for each temperature segment was determined (FIG. 10B, inset).
The hyperpolarized decay acquisitions were carried out with 3-10° excitation angle and 5-20 s repetition time. There was no significant difference in the T determined with different acquisition parameters.
Individual measurements are shown. Each column represents a single hyperpolarized decay, obtained with the same flip angle and repetition time. Using an online measurement of the temperature inside the NMR tube, we could differentiate different temperature regimes within a single decay and thus assess the effect of temperature on T1. T1 values were determined by fitting the equation describing the mono-exponential decay of a hyperpolarized signal: S(t)=S0·e−t/T1·(cos θ)t/TR.
The angle of excitation was determined by calibration of the 90o excitation on a ^15N labeled standard. The error for each individual measurement represents the 95% confidence interval of the curve fit.
The temperature gradient was formed by adding a solution at a temperature different than the spectrometer temperature so that throughout the acquisition the sample slowly cooled/warmed to the spectrometer temperature. […] Variability in the determined T1 values may be due to slight variations in the effective angle of excitation and/or the amount of trace protons present in different samples; indeed when different temperature segments are compared within the same hyperpolarized decay, (i.e. for the same sample on the same day), the dependence of T1 on the temperature can be even more clearly seen. The average and standard deviation of all measurements in the same temperature regime are shown in the column on the right.

Data set [2] in a line: Liquid state polarization and buildup of [^15N2]urea by dDNP. Format: physicochemical. Here is the method:
The temperature in the NMR tube was continuously monitored using an NMR compatible temperature probe (Osensa, Burnaby, BC, Canada). […] Curve fitting was performed using Matlab (Mathworks, Natick, Mass., USA).

A short description of data set [3]: T1 of hyperpolarized ^15N sites bound to labile protons upon dissolution in H2O and D2O, 5.8 T. Type of data set: physicochemical. The following applies: for T1 upon dissolution in D2O / T1 upon dissolution in H2O: ≈37° C. (35-40° C.), 5.8 T, n=2; for T1 prolongation D2O versus H2O: deuteration of labile protons; for decrease in polarization during 1 min transfer and administration: entire process at physiological temperatures.
Description: Spin polarization and fast dissolution were carried out in a dDNP commercial device (HyperSense, Oxford Instruments Molecular Biotools, Oxford, UK). The sample was maintained at 1.4-1.5 K and was irradiated at 94.110 GHz. ^15N NMR spectroscopy was performed in a 5.8 T NMR spectrometer (RS2D, Mundolsheim, France), using a 10-mm broadband NMR probe. The temperature in the NMR tube was continuously monitored using an NMR compatible temperature probe (Osensa, Burnaby, BC, Canada). Spectral processing and calculation of integrated intensities was performed using MNova (Mestrelab Research, Santiago de Compostela, Spain). Liquid state polarization was determined by comparing the integrated intensity of the first hyperpolarized spectrum to the integrated intensity of a standard containing a known concentration of ^15N label, where the thermal equilibrium polarization is given as PolTE=tanh(ℏγB/2kbT) Determination of the T1 of the hyperpolarized sites was performed by curve fitting of the signal decay to the following equation: S(t)=S0·e^−t/T^1·(cos θ)^t/TR in which TR, the time between excitations, and θ, the nutation angle of excitation, are known. For measurements of T1 in whole blood, 5.5 ml of whole blood in heparinized tube was obtained from a healthy volunteer and maintained at 20° C. for 2.5 h. Ten minutes before dissolution of the hyperpolarized urea sample, the blood was loaded into a NMR tube in the spectrometer and maintained at 36° C. The hyperpolarized urea sample was dissolved into a container outside the magnet and was injected in 0.5-1.0 mL aliquots followed by ≈2 ml of air through a tube at the bottom of the sample, to ensure no sample remained in the inlet line and complete mixing of the freshly injected solution with the blood. The sample was visually inspected at the end of the experiment to confirm that the hyperpolarized solution was well mixed with the blood and that there was no separation of the blood. Curve fitting was performed using Matlab (Mathworks, Natick, Mass., USA). Statistical analysis was performed using Microsoft Excel (Microsoft, Ra'anana, Israel).

The conditions of data set [4]: in vivo; cited from earlier work.
The text on data set [5]:
The dissolution process is detailed in the results section. […] Unless otherwise stated, the dissolved hyperpolarized solution was directly injected to a screw cup 10 mm NMR tube in a 5.8T NMR spectrometer via a PTFE line of about 2.4 m length with 3 s of He(g) chase. This line was wrapped with a heating tape (MRC, Holon, Israel) that enabled control over the temperature of the dissolution medium arriving to the NMR tube directly or to a collection tube in the fringe field of the spectrometer. ^15N-Nuclear Magnetic Resonance (NMR) spectra were continuously recorded immediately at the start of the dissolution process. […] In the experiments in body fluids and in experiments in which the hyperpolarized solution was first cooled to temperatures below room temperature, the dissolution media was first collected in a conical tube placed in the spectrometer's fringe field, and then was injected by syringe via a PEEK line to the NMR tube that was placed in the magnet.
For heating this hyperpolarized solution prior to arrival to the NMR tube, the PTFE line leading the hyperpolarized solution out of the spin polarization device was wrapped with a heating tape connected to a temperature controller (MRC, Holon, Israel). In this way, hyperpolarized solutions at temperatures higher than 26° C. could be obtained. For cooling the hyperpolarized solution, the heating tape was not turned on and the dissolution medium was mixed with 0 to 4 mL of D2O at 2° C. in a collection tube placed in ice-water bath in the fringe field of the magnet, prior to injection.
^15N-NMR spectroscopy was performed in a 5.8T NMR spectrometer (RS2D, Mundolsheim, France), using a 10 mm broad-band NMR probe. The chemical shift scale of the spectra presented herein was calibrated based on a separate measurement of a [^15N2]urea standard sample (4M in H2O:D2O 80:20), carried out prior to hyperpolarized ^15N acquisitions, calibrating the [^15N2]urea signal to −306 ppm (relative to nitromethane). For enhancement factor calculation, the spectra were collected with a high flip angle of […] and a repetition time of 2 s. For T1 calculation, the spectra were acquired with a low flip angle of […] and a longer repetition time of 5-10 s.
The temperature in the NMR tube was continuously monitored using an NMR compatible temperature probe (Osensa, Burnaby, BC, Canada).
Determination of the T1 of the hyperpolarized sites was performed by curve fitting of the signal decay to the following equation: S(t)=S0·e^−t/T^1·(cos θ)^t/TR, in which TR, the time between excitations, and θ, the nutation angle of excitation, are known. Curve fitting was performed using Matlab (Mathworks, Natick, Mass., USA).
The source holds these as a separate data set.

Where two headings read alike, the source gives them in different places.

For `[15NH2]C([15NH2])=O` [[^15N2]urea], the “T1 Average ± SD” value in data set [1] (15-25° C., n = 3) is 146 ± 23; in data set [1] (25-35° C., n = 4), 191 ± 33; in data set [1] (35-45° C., n = 6), 226 ± 38; in data set [1] (45-55° C., n = 4) it was 308 ± 34; in data set [1] (55-65° C., n = 4) it was 351 ± 40; in data set [1] (65-75° C., n = 3) it was 382 ± 48. Further, the T1 is on record as 228 ± 4 in data set [1] (#1, θ 10°, TR 5 s, 35-45° C.); 155 ± 3 in data set [1] (#2, θ 3°, TR 10 s, 15-25° C., ± 95% CI of fit); 196 ± 8 in data set [1] (#2, θ 3°, TR 10 s, 25-35° C.); 209 ± 2 in data set [1] (#3, θ 10°, TR 10 s, 25-35° C.); 266 ± 4 in data set [1] (#3, θ 10°, TR 10 s, 35-45° C.); 355 ± 8 in data set [1] (#3, θ 10°, TR 10 s, 45-55° C.). Moreover, the T1 is 382 ± 17 in data set [1] (#3, θ 10°, TR 10 s, 55-65° C.); 216 ± 2 in data set [1] (#4, θ 10°, TR 10 s, 25-35° C.); 272 ± 3 in data set [1] (#4, θ 10°, TR 10 s, 35-45° C.); 340 ± 5 in data set [1] (#4, θ 10°, TR 10 s, 45-55° C.); 386 ± 12 in data set [1] (#4, θ 10°, TR 10 s, 55-65° C.); 416 ± 23 in data set [1] (#4, θ 10°, TR 10 s, 65-75° C.). For the same compound, the T1 in data set [1] (#5, θ 10°, TR 10 s, 35-45° C.) is 216 ± 5; in data set [1] (#5, θ 10°, TR 10 s, 45-55° C.) it was 273 ± 4; in data set [1] (#5, θ 10°, TR 10 s, 55-65° C.) it was 305 ± 14; in data set [1] (#5, θ 10°, TR 10 s, 65-75° C.), 327 ± 16; in data set [1] (#6, θ 10°, TR 10 s, 15-25° C.) it was 112 ± 6; in data set [1] (#6, θ 10°, TR 10 s, 25-35° C.), 143 ± 1. The T1 in data set [1] (#7, θ 10°, TR 15 s, 35-45° C.) turned out to be 198 ± 2; in data set [1] (#8, θ 10°, TR 15 s, 35-45° C.), 176 ± 5; in data set [1] (#9, θ 5°, TR 20 s, 45-55° C.) it was 284 ± 6; in data set [1] (#9, θ 5°, TR 20 s, 55-65° C.), 332 ± 11; in data set [1] (#9, θ 5°, TR 20 s, 65-75° C.), 404 ± 41; in data set [1] (#10, θ 10°, TR 10 s, 15-25° C.) it was 163 ± 20. In addition, the T1 result in data set [1] (D2O, 65-75° C. (above 65° C.)) is “more than 6 min”; in data set [1] (deuterated water, physiological temperatures), greater than 3 min. In data set [2] (R^2=0.93), this compound had a polarization buildup time of 2.3 ± 1.2 h. In addition, the maximum polarization in data set [2] (liquid state polarization after varying irradiation times, 1.4-1.5 K) is given as 5.1±1.6%. Further, the “T1 in whole blood” value was found to be 12.0 ± 0.2 s (2nd injection), 12.9 ± 0.6 s (3rd injection) and 10 s (37° C.). The “T1 in whole human blood” value (first decay curve, D2O:whole blood 1:10, 95% CI) was determined as 9.8 ± 0.2 s. For the same compound, the “T1 upon dissolution in D2O” value in data set [3] was determined as 200 ± 20 s. The “T1 upon dissolution in H2O” value in data set [3] is 33 ± 5 s. In addition, in data set [3], the “T1 prolongation D2O versus H2O” value came to 6.1 fold. Besides, the “decrease in polarization during 1 min transfer and administration” value in data set [3] is “≈ 25%”.
Turning to `O=NO` [Nitrite (NO2), Nitrite], the “half-life in the circulation” value in data set [4] is 0.333 h.
Consider `Cl.N[C@@H](CCCNC(=[15NH])[15NH2])C(=O)O` [[guanido-^15N2]arginine, L-[guanido-^15N2]arginine:HCl], for which, in data set [3], the “T1 upon dissolution in D2O” value was 44 ± 1 s, the “T1 upon dissolution in H2O” value is 6.6 ± 0.3 s and the “T1 prolongation D2O versus H2O” value worked out at 6.7 fold.
`O=C1CCC(=O)[15NH]1` [[^15N]succinimide]: in data set [3], the “T1 upon dissolution in D2O” value was 215 ± 2 s, the “T1 upon dissolution in H2O” value stood at 45 ± 3 s and the “T1 prolongation D2O versus H2O” value was found to be 4.8 fold.
With `O=[15N][O-].[Na+]` [[^15N]nitrite, sodium [^15N]nitrite], the T1 in data set [5] (D2O, n=2) was 14.8 ± 0.6 s; in data set [5] (H2O, n=2), 13.6 ± 0.5 s; in data set [5] (same sample, D2O (co-polarized nitrate and nitrite)), 14 s.
With `N[13C](N)=O` [carbon-13 labeled urea, reference compound], the “decrease in polarization during 1 min transfer and administration” value in data set [3] was “≈ 80%”.
On to `O=[N+]([O-])O` [nitrate (NO3—), nitrate], for which the “half-life in the circulation” value in data set [4] is 5 to 6 h.

The record behind these values is patent publication US11771779B2, “Non-metallic magnetic resonance contrast agent” (HADASIT MEDICAL RESEARCH SERVICES & DEVELOPMENT LIMITED, priority 2018, dated 2023).
